From patent EP4800013A1, “PARG INHIBITOR” (Shanghai Qilu Pharmaceutical Research and Development …, priority 2023, dated 2025)

These molecules were tested against T1, PARG (Homo sapiens, UniProt Q86W56) (assay: Enzymatic inhibitory activity against PARG, HTRF assay). Settings: not given.
T1 construct: made in house
Format: biochemical
In short: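 Purified PARG pre-incubated with compounds (top 10 µM, 3- to 5-fold dilutions, duplicates) 15 min at room temperature, then PARylated PARP1 substrate added for 60 min in Tris pH 7.4 buffer with DTT, EDTA/EGTA, KCl. HTRF (His-Tb/SA-XL665) read-out; IC50 by four-parameter logistic fit, normalised to DMSO and control-inhibitor wells.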

T1 sequence (Q86W56 whole entry): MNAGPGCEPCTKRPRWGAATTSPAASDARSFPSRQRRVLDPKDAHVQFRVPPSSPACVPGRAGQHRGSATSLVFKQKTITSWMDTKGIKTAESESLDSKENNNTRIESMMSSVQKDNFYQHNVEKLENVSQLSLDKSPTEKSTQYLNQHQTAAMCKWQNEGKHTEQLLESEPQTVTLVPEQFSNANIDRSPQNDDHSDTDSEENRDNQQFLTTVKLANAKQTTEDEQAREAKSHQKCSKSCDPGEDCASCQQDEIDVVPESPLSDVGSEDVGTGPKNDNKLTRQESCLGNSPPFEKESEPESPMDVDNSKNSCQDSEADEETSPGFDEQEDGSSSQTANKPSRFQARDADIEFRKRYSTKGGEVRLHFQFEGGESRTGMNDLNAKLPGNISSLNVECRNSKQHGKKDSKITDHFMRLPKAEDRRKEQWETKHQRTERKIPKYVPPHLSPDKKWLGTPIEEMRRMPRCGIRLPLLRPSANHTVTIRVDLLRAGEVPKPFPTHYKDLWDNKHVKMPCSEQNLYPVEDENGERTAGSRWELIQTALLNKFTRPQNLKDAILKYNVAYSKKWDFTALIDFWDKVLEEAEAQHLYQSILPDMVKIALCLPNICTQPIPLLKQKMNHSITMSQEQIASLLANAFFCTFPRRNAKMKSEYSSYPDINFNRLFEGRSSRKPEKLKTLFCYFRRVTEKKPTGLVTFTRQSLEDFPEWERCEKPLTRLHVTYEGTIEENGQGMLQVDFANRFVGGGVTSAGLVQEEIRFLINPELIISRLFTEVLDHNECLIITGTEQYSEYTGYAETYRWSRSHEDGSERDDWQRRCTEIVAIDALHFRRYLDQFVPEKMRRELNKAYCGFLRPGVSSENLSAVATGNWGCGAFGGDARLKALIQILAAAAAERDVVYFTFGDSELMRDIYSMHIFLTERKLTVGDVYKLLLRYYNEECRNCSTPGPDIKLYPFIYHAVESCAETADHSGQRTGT

`CC(C)n1c(=O)n(-c2nnc(C(F)F)s2)c2cc(S(=O)(=O)NC3(C#N)CC3)cc(N3CCN(C(=O)N4CCCC4)CC3)c21` [Compound A047] was tested, and the IC50 was 15 nM.

Same assay, conditions: HTRF; PARylated PARP1 protein as substrate; 60 minutes at room temperature; read-out: IC50 against PARG enzyme

Compared with `C[C@H]1CN(c2cc(S(=O)(=O)NC3(C)CC3)cc3c2nc(C2CCCCO2)n3-c2nnc(C(F)F)s2)C[C@H](C)N1` (stereo partly drawn) [Compound 077X], `C[C@H]1CN(c2cc(S(=O)(=O)NC3(C)CC3)cc3c2nc(C2CC4(CC4)CO2)n3-c2nnc(C(F)F)s2)C[C@H](C)N1` (stereo partly drawn) [Compound 079M] is 5.6-fold lower in IC50: 21.3 nM for the first, 3.8 nM for the second.

First: C[C@H]1CN(c2cc(S(=O)(=O)NC3(C)CC3)cc3c2nc(C2CC(F)(F)CO2)n3-c2nnc(C(F)F)s2)C[C@H](C)N1 (stereo partly drawn) [Compound 079J]
Second: C[C@H]1CN(c2cc(S(=O)(=O)NC3(C)CC3)cc3c2n2nc(C(=O)NC4(C)CC4)nc2n3-c2nnc(C(F)F)s2)C[C@H](C)N1 [Compound 084K]
The IC50 of the first is 2.6-fold higher: 1.8 nM for the first, 0.7 nM for the second. The second is the more potent here.

Going from `C[C@H]1CN(c2cc(S(=O)(=O)NC3(C)CC3)cn3c(-c4nnc(C(F)F)s4)c([C@H]4CCCO4)nc23)C[C@H](C)N1` [Compound 080B1] to `C[C@H]1CN(c2cc(S(=O)(=O)NC3(C)CC3)cn3c(-c4nnc(C(F)F)s4)c(C4CCCO4)nc23)C[C@H](C)N1` (stereo partly drawn) [Compound 080B], the IC50 falls from 2.2 nM to 0.5 nM (4.4-fold). The second is the more potent here.

`C[C@H]1CN(c2cc(S(=O)(=O)NC3(C)CC3)cn3c(-c4nnc(C(F)F)s4)cnc23)C[C@H](C)N1` [Compound 080J] and `C[C@H]1CN(c2cc(S(=O)(=O)NC3(C)CC3)cn3c(-c4nnc(C(F)F)s4)c(Cl)nc23)C[C@H](C)N1` [Compound 080K] are within 1.5-fold of each other in IC50: 2.4 nM for the first, 1.7 nM for the second.

First: C[C@H]1CN(c2cc(S(=O)(=O)NC3(C)CC3)cc3c(-c4nnc(C(F)F)s4)c([C@H]4CCCO4)nn23)C[C@H](C)N1 [Compound 083A1]
Second: C[C@H]1CN(c2cc(S(=O)(=O)NC3(C)CC3)cc3c(-c4nnc(C(F)F)s4)c([C@@H]4CCCO4)nn23)C[C@H](C)N1 [Compound 083A2]
The IC50 of the first is 15-fold higher: 14.6 nM for the first, 1 nM for the second.

Going from `C[C@H]1CN(c2cc(S(=O)(=O)NC3(C)CC3)cc3c(-c4nnc(C(F)F)s4)c(C4CCCO4)nn23)C[C@H](C)N1` (stereo partly drawn) [Compound 083A] to `C[C@H]1CN(c2cc(S(=O)(=O)NC3(C)CC3)cc3c2n2nc(C(=O)NC4CC4)nc2n3-c2nnc(C(F)F)s2)C[C@H](C)N1` [Compound 084J], the IC50 falls from 2.1 nM to 0.7 nM (3-fold). The second is the more potent here.

Going from `COC(C)(C)c1nc2n(-c3nnc(C(F)F)s3)c3cc(S(=O)(=O)NC4(C)CC4)cc(N4C[C@H](C)N[C@@H](C)C4)c3n2n1` [Compound 084H] to `C[C@H]1CN(c2cc(S(=O)(=O)NC3(C)CC3)cc3c2n2nc(NC(=O)C4CC4)nc2n3-c2nnc(C(F)F)s2)C[C@H](C)N1` [Compound 084L], the IC50 rises from 0.7 nM to 1.1 nM (1.6-fold). The first is the more potent here.

Compared with `C[C@H]1CN(c2cc(S(=O)(=O)NC3(C)CC3)cc3c2n2nc(N4CCCC4=O)nc2n3-c2nnc(C(F)F)s2)C[C@H](C)N1` [Compound 084M], `Cn1c(=O)n(-c2nnc(C(F)F)s2)c2cc(S(=O)(=O)NC3(C)CC3)cc(N3CCNCC3)c21` [Compound A005] is 38-fold higher in IC50: 0.8 nM for the first, 30.4 nM for the second.

First: CC(C)C(=O)N1CCN(c2cc(S(=O)(=O)NC3(C)CC3)cc3c2[nH]c(=O)n3-c2nnc(C(F)F)s2)CC1 [Compound A002]
Second: CN(C)C(=O)N1CCN(c2cc(S(=O)(=O)NC3(C)CC3)cc3c2[nH]c(=O)n3-c2nnc(C(F)F)s2)CC1 [Compound A004]
The IC50 of the first is 1.5-fold higher: 16.4 nM for the first, 10.7 nM for the second. The second is the more potent here.

`CC(C)C(=O)N1CCN(c2cc(S(=O)(=O)NC3(C)CC3)cc3c2n(C)c(=O)n3-c2nnc(C(F)F)s2)CC1` [Compound A003] and `CN(C)C(=O)N1CCN(c2cc(S(=O)(=O)NC3(C)CC3)cc3c2n(C)c(=O)n3-c2nnc(C(F)F)s2)CC1` [Compound A006] are within 1.5-fold of each other in IC50: 5.4 nM for the first, 3.7 nM for the second.

First: CN(C)C(=O)N1CCN(c2cc(S(=O)(=O)NC3(C#N)CC3)cc3c2n(C)c(=O)n3-c2nnc(C(F)F)s2)CC1 [Compound A013]
Second: CC(C)C(=O)N1CCN(c2cc(S(=O)(=O)NC3(C#N)CC3)cc3c2n(C)c(=O)n3-c2nnc(C(F)F)s2)CC1 [Compound A014]
The IC50 of the first is 4.2-fold lower: 2.9 nM for the first, 12.3 nM for the second.

For `CC(C)n1c(=O)n(-c2nnc(C(F)F)s2)c2cc(S(=O)(=O)NC3(C)CC3)cc(N3CCN(C(=O)N(C)C)CC3)c21` [Compound A018], the IC50 was 34.1 nM.

Each molecule was assayed on KURAMOCHI cells (assay: Inhibition of proliferation of KURAMOCHI cells (CellTiter-Glo, intracellular ATP)). Settings: 168 h, incubated for 7 days, read-out: IC50 against KURAMOCHI cells.
Format: cell-based
In short: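 KURAMOCHI cells seeded at 4000/well, incubated overnight, then treated with 9-point 1:4 compound series from 10 µM (0.5% DMSO) for 7 days at 37°C, 5% CO2. Viability read by CellTiter-Glo luminescence; inhibition normalised to medium-only (100%) and DMSO (0%) controls, IC50 from variable-slope four-parameter fit.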

`C[C@H]1CN(c2cc(S(=O)(=O)NC3(C)CC3)cc3c2nc(C2CCCCO2)n3-c2nnc(C(F)F)s2)C[C@H](C)N1` (stereo partly drawn) [Compound 077X] and `C[C@H]1CN(c2cc(S(=O)(=O)NC3(C)CC3)cc3c2nc(C2CC4(CC4)CO2)n3-c2nnc(C(F)F)s2)C[C@H](C)N1` (stereo partly drawn) [Compound 079M] are within 1.5-fold of each other in IC50: 16 nM for the first, 15 nM for the second.

Compared with `C[C@H]1CN(c2cc(S(=O)(=O)NC3(C)CC3)cc3c2nc(C2CC(F)(F)CO2)n3-c2nnc(C(F)F)s2)C[C@H](C)N1` (stereo partly drawn) [Compound 079J], `C[C@H]1CN(c2cc(S(=O)(=O)NC3(C)CC3)cc3c2n2nc(C(=O)NC4(C)CC4)nc2n3-c2nnc(C(F)F)s2)C[C@H](C)N1` [Compound 084K] is 2.2-fold higher in IC50: 4 nM for the first, 9 nM for the second.

Going from `C[C@H]1CN(c2cc(S(=O)(=O)NC3(C)CC3)cn3c(-c4nnc(C(F)F)s4)c([C@H]4CCCO4)nc23)C[C@H](C)N1` [Compound 080B1] to `C[C@H]1CN(c2cc(S(=O)(=O)NC3(C)CC3)cn3c(-c4nnc(C(F)F)s4)c(C4CCCO4)nc23)C[C@H](C)N1` (stereo partly drawn) [Compound 080B], the IC50 falls from 4 nM to 1 nM (4-fold).

`C[C@H]1CN(c2cc(S(=O)(=O)NC3(C)CC3)cn3c(-c4nnc(C(F)F)s4)cnc23)C[C@H](C)N1` [Compound 080J] and `C[C@H]1CN(c2cc(S(=O)(=O)NC3(C)CC3)cn3c(-c4nnc(C(F)F)s4)c(Cl)nc23)C[C@H](C)N1` [Compound 080K] are within 1.5-fold of each other in IC50: 5 nM for the first, 4 nM for the second.

Going from `C[C@H]1CN(c2cc(S(=O)(=O)NC3(C)CC3)cc3c(-c4nnc(C(F)F)s4)c([C@H]4CCCO4)nn23)C[C@H](C)N1` [Compound 083A1] to `C[C@H]1CN(c2cc(S(=O)(=O)NC3(C)CC3)cc3c(-c4nnc(C(F)F)s4)c([C@@H]4CCCO4)nn23)C[C@H](C)N1` [Compound 083A2], the IC50 falls from 25 nM to 3 nM (8.3-fold).

First: C[C@H]1CN(c2cc(S(=O)(=O)NC3(C)CC3)cc3c(-c4nnc(C(F)F)s4)c(C4CCCO4)nn23)C[C@H](C)N1 (stereo partly drawn) [Compound 083A]
Second: C[C@H]1CN(c2cc(S(=O)(=O)NC3(C)CC3)cc3c2n2nc(C(=O)NC4CC4)nc2n3-c2nnc(C(F)F)s2)C[C@H](C)N1 [Compound 084J]
The IC50 of the first is 4-fold lower: 4 nM for the first, 16 nM for the second. The first is the more potent here.

Compared with `COC(C)(C)c1nc2n(-c3nnc(C(F)F)s3)c3cc(S(=O)(=O)NC4(C)CC4)cc(N4C[C@H](C)N[C@@H](C)C4)c3n2n1` [Compound 084H], `C[C@H]1CN(c2cc(S(=O)(=O)NC3(C)CC3)cc3c2n2nc(NC(=O)C4CC4)nc2n3-c2nnc(C(F)F)s2)C[C@H](C)N1` [Compound 084L] is 9.7-fold higher in IC50: 3 nM for the first, 29 nM for the second.

First: C[C@H]1CN(c2cc(S(=O)(=O)NC3(C)CC3)cc3c2n2nc(N4CCCC4=O)nc2n3-c2nnc(C(F)F)s2)C[C@H](C)N1 [Compound 084M]
Second: Cn1c(=O)n(-c2nnc(C(F)F)s2)c2cc(S(=O)(=O)NC3(C)CC3)cc(N3CCNCC3)c21 [Compound A005]
The IC50 of the first is 5-fold lower: 9 nM for the first, 45 nM for the second. The first is the more potent here.

`CC(C)C(=O)N1CCN(c2cc(S(=O)(=O)NC3(C)CC3)cc3c2[nH]c(=O)n3-c2nnc(C(F)F)s2)CC1` [Compound A002] and `CN(C)C(=O)N1CCN(c2cc(S(=O)(=O)NC3(C)CC3)cc3c2[nH]c(=O)n3-c2nnc(C(F)F)s2)CC1` [Compound A004] are within 1.5-fold of each other in IC50: 86 nM for the first, 80 nM for the second.

First: CC(C)C(=O)N1CCN(c2cc(S(=O)(=O)NC3(C)CC3)cc3c2n(C)c(=O)n3-c2nnc(C(F)F)s2)CC1 [Compound A003]
Second: CN(C)C(=O)N1CCN(c2cc(S(=O)(=O)NC3(C)CC3)cc3c2n(C)c(=O)n3-c2nnc(C(F)F)s2)CC1 [Compound A006]
The IC50 of the first is 1.6-fold higher: 13 nM for the first, 8 nM for the second.

First: CN(C)C(=O)N1CCN(c2cc(S(=O)(=O)NC3(C#N)CC3)cc3c2n(C)c(=O)n3-c2nnc(C(F)F)s2)CC1 [Compound A013]
Second: CC(C)C(=O)N1CCN(c2cc(S(=O)(=O)NC3(C#N)CC3)cc3c2n(C)c(=O)n3-c2nnc(C(F)F)s2)CC1 [Compound A014]
The IC50 of the first is 2.8-fold lower: 13 nM for the first, 37 nM for the second. The first is the more potent here.

Going from `CC(C)n1c(=O)n(-c2nnc(C(F)F)s2)c2cc(S(=O)(=O)NC3(C)CC3)cc(N3CCN(C(=O)N(C)C)CC3)c21` [Compound A018] to `CC(C)n1c(=O)n(-c2nnc(C(F)F)s2)c2cc(S(=O)(=O)NC3(C#N)CC3)cc(N3CCN(C(=O)N4CCCC4)CC3)c21` [Compound A047], the IC50 rises from 7 nM to 13 nM (1.9-fold). The first is the more potent here.
